From paper PMC8217170, “Phase Ib dose-escalation study of the hypoxia-modifier Myo-inositol trispyrophosphate in patients with hepatopancreatobiliary tumors” (Nature Communications, 2021)

Experiment: Phase Ib dose escalation: safety and tolerability (CTCAE v4.03), MTD
Assay type: in vivo, human
Set-up: key to Hypercalcemia, CTCAE-Grade / Hypophosphatemia, CTCAE-Grade / Cholestasis, CTCAE-Grade / Nausea, CTCAE-Grade / Hypertension, CTCAE-Grade / Upper respiratory tract infection, CTCAE-Grade / Hyponatremia, CTCAE-Grade / Hypomagnesemia, CTCAE-Grade / Ascites & death due to rapid progression of malignancy, CTCAE-Grade / Hypokalemia, CTCAE-Grade / Pyrexia, CTCAE-Grade / Hyperphosphatemia, CTCAE-Grade / AV Block 1°, CTCAE-Grade / Palpations, CTCAE-Grade: 1 is the mildest form of the specific symptom; 5 is death
Conditions: for Hypercalcemia, CTCAE-Grade: relationship to IMP: Definitively
Excerpt: This first-in-patient investigator-initiated phase Ib dose-escalation study followed a 3 + 3 dose-escalation scheme with a planned maximal inclusion of 48 participants allocated to eight cohorts of increasing doses. Outcomes were safety, tolerability, pharmacokinetics, and preliminary efficacy of ITPP with participants in this exploratory, prospective, open-label and unblinded, unrandomized, single-center investigation being enrolled at the University Hospital Zurich (USZ), Switzerland. Written informed consent was obtained of all participants before study inclusion after a time of consideration of at least 24 h. Written consent included the reporting and publication of individual, anonymized patient data. The study adhered to the principles of the Declaration of Helsinki, current good clinical practice guidelines and all ethical regulations. The study protocol was approved by the responsible independent ethics committee of Zurich (KEK-ZH-Nr. 2014-0374) and the national regulatory authority Swissmedic (2015DR1009) and is provided in the Supplementary Note 1. The study setup was published before inclusion start[55] and the trial first registered at ClinicalTrials.gov (NCT02528526) on 11/11/2014. After 6 sequential reviews requiring minor editorial changes, final registration at ClinicalTrials.gov was obtained on the 08/18/2015. The first patient was included in the study 04/13/2015, with treatment started on the 04/27/2015. 4 patients were included in the trial before final registration at ClinicalTrials.gov (04/13/2015–07/20/2015). The last patient was included on the 06/12/2018, treatment started on the 06/18/2018 and the last treatment administered on 07/06/2018. Data cut-off for the study was the 12/31/2018. The manuscript was written in compliance with ICMJE guidelines.
Primary objectives were (i) assessment of the safety and tolerability of increasing doses of ITPP, and (ii) establishment of the MTD (primary endpoint) according to the dose escalation schema. The primary outcome was measured by collection of adverse effects information according to Common Terminology Criteria for Adverse Events (CTCAE, US National Cancer Institute, version 4.03). Safety objectives and outcomes were identical with the primary endpoint.
The study drug (brand name: OXY111A) was intravenously administered in 9 infusions, each lasting 8 h, over 3 weeks in an outpatient setting at the Phase 1 unit of the USZ Clinical Trials Center. Due to its anionic properties, ITPP acts a potent chelator of calcium. Therefore, administration with CaCl2 (Baxter) at a 1:0.75 molar ratio has been determined to prevent hypocalcaemia. Respective doses were calculated based on body surface area (DuBois/DuBois formula). Cohort 1 started at weekly doses of 5600 mg/m^2 weekly, equal to the maximal weekly dose tested in healthy volunteers (unpublished data from Normoxys®). Dose escalation was performed according to the predefined scheme (Fig. 1a, Supplementary Note 1: page 6) up to a maximum weekly dose of 43,700 mg/m^2. During infusion days, participants had continuous monitoring of vital signs and daily 12-electrode electrocardiograms. Electrolytes measurements and venous blood gas analyses were performed three-hourly, while complete blood count, coagulation and routine kidney/liver parameters were assessed twice daily.
Severity of encountered AE was assessed following the CTCAE guidelines. Serious AE were defined as events being life-threatening, necessitating hospitalization, resulting in death or birth defects. DLT was defined as any AE ≥ grade 3 and sTET as any grade 2 AE considered to be definitely, probably or possibly related to ITPP. […] MTD was defined as the dose preceding the level at which 1 patient experienced a DLT or ≥3 patients experienced a sTET (Supplementary Note 1: page 6). The window for DLT/sTET/MTD assessment was from first dose of ITPP until first dose of chemotherapy or 10d following the last ITPP infusion. […]

[1] = cohort 4, AE, relationship to IMP: Possibly
[2] = cohort 4, AE, relationship to IMP: Unrelated
[3] = cohort 4, SAE, relationship to IMP: Unrelated
[4] = cohort 5, AE, relationship to IMP: Unlikely
[5] = cohort 7, AE, relationship to IMP: Unlikely
[6] = cohort 7, AE, relationship to IMP: Unrelated
[7] = cohort 8, AE, relationship to IMP: Possibly

Structure (SMILES): O=P1(O)OC2C3OP(=O)(O)OP(=O)(O)OC3C3OP(=O)(O)OP(=O)(O)OC3C2OP(=O)(O)O1 (stereo not drawn) [ITPP, Myo-inositol trispyrophosphate]
- Icterus due to malignant obstruction (AE, not ITPP-related) (cohort 4, 7000 mg/m^2): 0
- Lower gastrointestinal bleeding (AE, not ITPP-related) (cohort 4, 7000 mg/m^2): 0
- Nausea & vomiting due to malignant infiltration of stomach (AE, not ITPP-related) (cohort 4, 7000 mg/m^2): 0
- Neutropenia (AE, not ITPP-related) (cohort 4, 7000 mg/m^2): 0
- Palpitations (AE, not ITPP-related) (cohort 4, 7000 mg/m^2): 0
- Pyrexia (AE, not ITPP-related) (cohort 4, 7000 mg/m^2): 0
- Hypercalcemia, CTCAE-Grade (cohort 4, AE): 1
- Hypertension, CTCAE-Grade [1]: 1
- Hypophosphatemia, CTCAE-Grade [1]: 1
- Ascites, CTCAE-Grade [2]: 3
- Nausea, CTCAE-Grade [2]: 1
- Upper respiratory tract infection, CTCAE-Grade [2]: 1
- Acute kidney injury grad 3, CTCAE-Grade [3]: 3
- Hospitalisation due to fatigue/decreased state of health, CTCAE-Grade [3]: 3
- AV Block 1° (AE, not ITPP-related) (cohort 5, 8750 mg/m^2): 0
- Acute kidney injury grade 3 (AE, not ITPP-related) (cohort 5, 8750 mg/m^2): 0
- Ascites due to oncological progress (AE, not ITPP-related) (cohort 5, 8750 mg/m^2): 0
- C. difficile enteritis (AE, not ITPP-related) (cohort 5, 8750 mg/m^2): 0
- Cholestasis (AE, not ITPP-related) (cohort 5, 8750 mg/m^2): 0
- Fatigue (AE, not ITPP-related) (cohort 5, 8750 mg/m^2): 0
- Hyperphosphatemia (TET) (cohort 5, 8750 mg/m^2): 0
- Hypertension (TET) (cohort 5, 8750 mg/m^2): 0
- Hypomagnesemia (TET) (cohort 5, 8750 mg/m^2): 0
- Hypophosphatemia (TET) (cohort 5, 8750 mg/m^2): 0
- Lower gastrointestinal bleeding (AE, not ITPP-related) (cohort 5, 8750 mg/m^2): 0
- Nausea & vomiting due to malignant infiltration of stomach (AE, not ITPP-related) (cohort 5, 8750 mg/m^2): 0
- Nausea (AE, not ITPP-related) (cohort 5, 8750 mg/m^2): 0
- Neutropenia (AE, not ITPP-related) (cohort 5, 8750 mg/m^2): 0
- Palpitations (AE, not ITPP-related) (cohort 5, 8750 mg/m^2): 0
- Pyrexia (AE, not ITPP-related) (cohort 5, 8750 mg/m^2): 0
- Upper respiratory tract infection (AE, not ITPP-related) (cohort 5, 8750 mg/m^2): 0
- Hypercalcemia, CTCAE-Grade (cohort 5, AE): 1
- Hypokalemia, CTCAE-Grade [4]: 2
- Hyponatremia, CTCAE-Grade [4]: 1
- Icterus/Stenosis D. choledochus, CTCAE-Grade [4]: 3
- AV Block 1° (AE, not ITPP-related) (cohort 6, 10,500 mg/m^2): 0
- Acute kidney injury grade 3 (AE, not ITPP-related) (cohort 6, 10,500 mg/m^2): 0
- Ascites due to oncological progress (AE, not ITPP-related) (cohort 6, 10,500 mg/m^2): 0
- C. difficile enteritis (AE, not ITPP-related) (cohort 6, 10,500 mg/m^2): 0
- Cholestasis (AE, not ITPP-related) (cohort 6, 10,500 mg/m^2): 0
- Fatigue (AE, not ITPP-related) (cohort 6, 10,500 mg/m^2): 0
- Hyperphosphatemia (TET) (cohort 6, 10,500 mg/m^2): 0
- Hypertension (TET) (cohort 6, 10,500 mg/m^2): 0
- Hypokalemia (AE, not ITPP-related) (cohort 6, 10,500 mg/m^2): 0
- Hyponatremia (AE, not ITPP-related) (cohort 6, 10,500 mg/m^2): 0
- Hypophosphatemia (TET) (cohort 6, 10,500 mg/m^2): 0
- Icterus due to malignant obstruction (AE, not ITPP-related) (cohort 6, 10,500 mg/m^2): 0
- Lower gastrointestinal bleeding (AE, not ITPP-related) (cohort 6, 10,500 mg/m^2): 0
- Nausea & vomiting due to malignant infiltration of stomach (AE, not ITPP-related) (cohort 6, 10,500 mg/m^2): 0
- Nausea (AE, not ITPP-related) (cohort 6, 10,500 mg/m^2): 0
- Palpitations (AE, not ITPP-related) (cohort 6, 10,500 mg/m^2): 0
- Pyrexia (AE, not ITPP-related) (cohort 6, 10,500 mg/m^2): 0
- Upper respiratory tract infection (AE, not ITPP-related) (cohort 6, 10,500 mg/m^2): 0
- Hypercalcemia, CTCAE-Grade (cohort 6, AE): 1
- Hypomagnesemia, CTCAE-Grade (cohort 6, AE, relationship to IMP: Possibly): 1
- Neutropenia, CTCAE-Grade (cohort 6, AE, relationship to IMP: Unlikely): 3
- AV Block 1° (AE, not ITPP-related) (cohort 7, 12,390 mg/m^2): 0
- Acute kidney injury grade 3 (AE, not ITPP-related) (cohort 7, 12,390 mg/m^2): 0
- C. difficile enteritis (AE, not ITPP-related) (cohort 7, 12,390 mg/m^2): 0
- Cholestasis (AE, not ITPP-related) (cohort 7, 12,390 mg/m^2): 0
- Fatigue (AE, not ITPP-related) (cohort 7, 12,390 mg/m^2): 0
- Hyperphosphatemia (TET) (cohort 7, 12,390 mg/m^2): 0
- Hypertension (TET) (cohort 7, 12,390 mg/m^2): 0
- Hypomagnesemia (TET) (cohort 7, 12,390 mg/m^2): 0
- Hypophosphatemia (TET) (cohort 7, 12,390 mg/m^2): 0
- Icterus due to malignant obstruction (AE, not ITPP-related) (cohort 7, 12,390 mg/m^2): 0
- Lower gastrointestinal bleeding (AE, not ITPP-related) (cohort 7, 12,390 mg/m^2): 0
- Nausea & vomiting due to malignant infiltration of stomach (AE, not ITPP-related) (cohort 7, 12,390 mg/m^2): 0
- Nausea (AE, not ITPP-related) (cohort 7, 12,390 mg/m^2): 0
- Neutropenia (AE, not ITPP-related) (cohort 7, 12,390 mg/m^2): 0
- Palpitations (AE, not ITPP-related) (cohort 7, 12,390 mg/m^2): 0
- Hypercalcemia, CTCAE-Grade (cohort 7, AE): 1
- Hypokalemia, CTCAE-Grade [5]: 1
- Upper respiratory tract infection, CTCAE-Grade [5]: 2
- Ascites, CTCAE-Grade [6]: 3
- Pyrexia, CTCAE-Grade [6]: 1
- Acute kidney injury grade 3 (AE, not ITPP-related) (cohort 8, 14,500 mg/m^2): 0
- Ascites due to oncological progress (AE, not ITPP-related) (cohort 8, 14,500 mg/m^2): 0
- C. difficile enteritis (AE, not ITPP-related) (cohort 8, 14,500 mg/m^2): 0
- Cholestasis (AE, not ITPP-related) (cohort 8, 14,500 mg/m^2): 0
- Fatigue (AE, not ITPP-related) (cohort 8, 14,500 mg/m^2): 0
- Hypokalemia (AE, not ITPP-related) (cohort 8, 14,500 mg/m^2): 0
- Hyponatremia (AE, not ITPP-related) (cohort 8, 14,500 mg/m^2): 0
- Hypophosphatemia (TET) (cohort 8, 14,500 mg/m^2): 0
- Icterus due to malignant obstruction (AE, not ITPP-related) (cohort 8, 14,500 mg/m^2): 0
- Lower gastrointestinal bleeding (AE, not ITPP-related) (cohort 8, 14,500 mg/m^2): 0
- Nausea & vomiting due to malignant infiltration of stomach (AE, not ITPP-related) (cohort 8, 14,500 mg/m^2): 0
- Nausea (AE, not ITPP-related) (cohort 8, 14,500 mg/m^2): 0
- Neutropenia (AE, not ITPP-related) (cohort 8, 14,500 mg/m^2): 0
- Palpitations (AE, not ITPP-related) (cohort 8, 14,500 mg/m^2): 0
- Pyrexia (AE, not ITPP-related) (cohort 8, 14,500 mg/m^2): 0
- Upper respiratory tract infection (AE, not ITPP-related) (cohort 8, 14,500 mg/m^2): 0
- Hyperphosphatemia, CTCAE-Grade [7]: 1
- Hypomagnesemia, CTCAE-Grade [7]: 1
- Hypertension, CTCAE-Grade (cohort 8, AE, relationship to IMP: Probably): 1
- AV Block 1°, CTCAE-Grade (cohort 8, AE, relationship to IMP: Unrelated): 1
- sTET or DLT (cohorts 1–7): No significant treatment-emergent toxicity (sTET) or dose limiting toxicity (DLT) was encountered
- Total number of adverse events (AE) (during ITPP administration and 10-day follow-up): 56
- Increase in diastolic blood pressure (grade I, three older male patients with pre-existing hypertension): < 20 mmHg
- Hypercalcemia of free ionized calcium, CTCAE grade (first sTET) (patient Nr. 27, cohort 8, single dose 14’500 mg/m^2): grade II
- Hypercalcemia of free ionized calcium, CTCAE grade (second sTET and DLT) (patient Nr. 28, cohort 8, single dose 14’500 mg/m^2): grade II and IV
- Maximum tolerated dose (MTD) (single dose, intravenous over eight hours, nine infusions over three weeks): 12,390 mg/m^2
